Experimental data from patent publication US8975400B2, “2,3-dihydroimidazo[1, 2-c] pyrimidin-5(1 H)-one compounds use as LP-PLA2 inhibitors” (Glaxo Group Limited, priority 2011, dated 2015).
Where a name gives a salt, the structure may show the parent alone.

How the values were obtained:
[1] = test system: splenic macrophages and CNS infiltrating macrophages (M1/M2 markers); experiment: Ex vivo analysis of M1 and M2 markers in macrophages of EAE rats by realtime PCR; set-up: species or system rat; details: splenic macrophages harvested day 13 post MBP-immunization
Protocol: Ex vivo analysis of proinflammatory (M1) and anti-inflammatory (M2) markers in control and compound treated EAE rats. Splenic macrophages were harvested at day 13 post MBP-immunization and assayed for expression of a variety of markers by realtime PCR. CNS infiltrating cells were harvested and macrophages were analyzed for expression of M1 and M2 markers by realtime PCR.

[2] = test system: experimental autoimmune encephalomyelitis (EAE) induced by myelin basic protein (MBP); experiment: Rat experimental autoimmune encephalomyelitis (EAE) model, preventive treatment; type: in vivo
Protocol: A further study was carried out to study the impact of Lp-PLA2 inhibitors on modulating M1/M2 imbalance. In this study, rats were induced to develop experimental autoimmune encephalomyelitis (EAE) by immunization with myelin basic protein (MBP) antigen and treated with a known Lp-PLA2 inhibitor: 5-((9-Methoxy-4-oxo-6,7-dihydro-4H-pyrimido[6,1-a]isoquinolin-2-yl)oxy)-2-(3-(trifluoromethyl)phenoxy)benzonitrile (See PCT application no. PCT/CN2011/001597). In this preventive treatment model, the compound was administered at day 0 (day of immunization) and continued to administer until day 22. The study lasted for 25 days. Rats were subsequently monitored for symptoms of EAE. Rats were immunized with MBP to develop EAE and symptoms were monitored daily. Plasma Lp-PLA2 activity, OxLDL, and LysoPC concentration were determined at different time points through the course of EAE.

[3] = molecular target: T1, recombinant human Lp-PLA2 (Homo sapiens, UniProt Q13093); experiment: Recombinant human Lp-PLA2 assay (rhLp-PLA2, PED6 assay); type: biochemical; details: recombinant human Lp-PLA2, PED6 substrate; upper limit for pIC50 in this assay is 9.3
T1 sequence (Q13093 22-441): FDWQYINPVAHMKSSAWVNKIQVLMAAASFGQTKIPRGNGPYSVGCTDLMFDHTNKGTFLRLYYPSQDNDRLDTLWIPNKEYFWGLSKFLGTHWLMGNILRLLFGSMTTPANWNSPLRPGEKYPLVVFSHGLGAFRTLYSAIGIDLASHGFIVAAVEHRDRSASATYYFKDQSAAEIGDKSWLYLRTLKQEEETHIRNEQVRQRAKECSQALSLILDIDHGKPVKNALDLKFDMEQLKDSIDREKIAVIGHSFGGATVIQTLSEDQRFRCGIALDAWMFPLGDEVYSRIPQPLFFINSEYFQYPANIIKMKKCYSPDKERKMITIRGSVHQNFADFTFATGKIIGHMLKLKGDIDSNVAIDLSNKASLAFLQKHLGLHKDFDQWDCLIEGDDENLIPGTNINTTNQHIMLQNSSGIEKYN
In short: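 Compound preincubated 30 min with rhLp-PLA2 (4 nM or 110 pM) in 50 mM HEPES pH 7.4, 150 mM NaCl, 1 mM CHAPS, then PED6 substrate (4 μM or 5 μM) added. After 20 min at room temperature protected from light, fluorescence read at ex 480/em 540. pIC50 derived from serial-dilution curves.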

Lp-PLA2 in human plasma = molecular target: T2, Lp-PLA2 in human plasma (Homo sapiens, UniProt Q13093); experiment: Lp-PLA2 human plasma assay (Thio-PAF assay); type: biochemical; details: pooled human plasma, 2-thio-PAF substrate; read-out: pIC50 in the thio-PAF assay (converted)
T2 construct: This assay may detect the activity of Lp-PLA2 in human plasma; from tissue; host or cells: pooled human plasma
T2 sequence (Q13093 22-441): T1 sequence (Q13093 22-441)
In short: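 Pooled human plasma preincubated 30 min with serially diluted compounds, then 2-thio-PAF substrate with CPM and NEM added in 50 mM HEPES pH 7.4, 150 mM NaCl, 1 mM CHAPS. TFA-quenched after 2 min, 40 min at RT, fluorescence ex 380/em 485; pIC50 from curve fit.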

IC50 [3]	IC50 (Lp-PLA2 in human plasma)	Compound	M1 (proinflammatory) markers expression [1]	M2 (anti-inflammatory) markers expression [1]	LysoPC levels ([2]; rat EAE plasma)	plasma Lp-PLA2 activity ([2]; rat EAE plasma)	clinical disease (EAE) ([2]; rat EAE, compound administered day 0 until day 22, study 25 days)
		COc1ccc2c(c1)CCn1c-2cc(Oc2ccc(Oc3cccc(C(F)(F)F)c3)c(C#N)c2)nc1=O [5-((9-Methoxy-4-oxo-6,7-dihydro-4H-pyrimido[6,1-a]isoquinolin-2-yl)oxy)-2-(3-(trifluoromethyl)phenoxy)benzonitrile]	decrease in M1 markers	increase in M2 markers	decreased	decreased	reduction in clinical disease
≤ 10 nM	≤ 1000 nM	CN1CCn2c1cc(OCc1ccc(Oc3ccnc(C(F)(F)F)c3)cc1)nc2=O [Example 123, 1-methyl-7-((4-((2-(trifluoromethyl)pyridin-4-yl)oxy)benzyl)oxy)-2,3-dihydroimid-azo[1,2-c]pyrimidin-5(1H)-one]					
≤ 1 nM	≤ 100 nM	CN1CCn2c1cc(OCc1cc(F)c(Oc3cccc(C(F)(F)F)c3)c(F)c1)nc2=O [Example 102, 7-((3,5-difluoro-4-(3-(trifluoromethyl)phenoxy)benzyl)oxy)-1-methyl-2,3-dihydroimidazo[1,2-c]pyrimidin-5(1H)-one]					
≤ 10 nM	≤ 1000 nM	CN1CCn2c1cc(OCc1ccc(Oc3cnc(F)c(F)c3)c(C#N)c1)nc2=O [Example E73, 2-((5,6-difluoropyridin-3-yl)oxy)-5-(((1-methyl-5-oxo-1,2,3,5-tetrahydroimidazo[1,2-c]pyrimidin-7-yl)oxy)methyl)benzonitrile]					
< 0.501 nM	≤ 100 nM	CN1CCn2c1cc(OCc1ccc(Oc3ccc(F)c(C(F)(F)F)c3)c(C#N)c1)nc2=O [Example E44, 2-(4-fluoro-3-(trifluoromethyl)phenoxy)-5-(((1-methyl-5-oxo-1,2,3,5-tetrahydroi-midazo[1,2-c]pyrimidin-7-yl)oxy)methyl)benzonitrile, trifluoroacetic acid salt]					
